Converted amounts (≈) assume the structure as drawn.
What was measured:
S. aureus ATCC 13709 = experiment: MIC, S. aureus ATCC 13709 (Alamar Blue broth microdilution); type: cell-based; conditions: Alamar Blue read after overnight incubation at 35° C.; for MIC: Staphylococcus aureus, ATCC13709, S. aureus; for MIC Sa: S. aureus
E. coli ATCC 25922 = experiment: MIC, E. coli ATCC 25922; type: cell-based; conditions: Alamar Blue read after overnight incubation at 35° C.; for MIC: Escherichia coli, ATCC25922, E. coli; for MIC Ec: E. coli

SMILES	MIC (S. aureus ATCC 13709) [µg/mL]	MIC (E. coli ATCC 25922) [µg/mL]	MIC Sa (S. aureus ATCC 13709) [µg/mL]	MIC Ec (E. coli ATCC 25922) [µg/mL]
CNc1cc(F)cc2c1[nH]c1nc(Oc3ccc4ncsc4c3)nc(N3C[C@H]4CC[C@@H](N)[C@H]4C3)c12 [4.320]	≤ 0.5	1 (≈ 2.04 µM)	–	–
CNc1cccc2c1[nH]c1nc(Sc3cnc4ccc[n+]([O-])c4c3)nc(N3CC(CN)C3)c12 [1.20]	4 (≈ 8.72 µM)	16 (≈ 34.9 µM)	–	–
CNc1cc(F)cc2c1[nH]c1nc(Oc3cnc(C)nc3)nc(-c3ccc(Cl)c(N)c3)c12 [4.419]	≤ 0.5	> 16	–	–
CNc1cc(F)cc2c1[nH]c1nc(Oc3cnc4c(c3)C(=O)N(C)C4C)nc(N3CC4CC3C[C@@H]4N)c12 (stereo partly shown) [4.398]	≤ 0.5	≤ 0.5	–	–
CNc1cc(F)cc2c1[nH]c1nc(Oc3cnc(C)nc3)nc(N3CC4CC4(CN)C3)c12 (stereo not shown) [4.098]	–	–	≤0.5	1 (≈ 2.3 µM)
CNc1cc(F)cc2c1[nH]c1nc(Oc3cnc(C)nc3)nc(N3C4CCC3C(N)C4)c12 (stereo not shown) [4.095]	–	–	2 (≈ 4.6 µM)	8 (≈ 18.4 µM)
CNc1cc(F)cc2c1[nH]c1nc(Oc3cnc(N)nc3)nc(N3CC4CCC(N)C4C3)c12 (stereo not shown) [4.189]	≤ 0.5	2 (≈ 4.45 µM)	–	–
CNc1cccc2c1[nH]c1nc(Oc3cnc4c(c3)ncn4C)nc(N3CC4C(N)C4C3)c12 (stereo not shown) [3.36]	≤ 0.5	2 (≈ 4.53 µM)	–	–
CNc1cc(F)cc2c1[nH]c1nc(Oc3cnc(C)nc3)nc(N3CC4C(CN)C4C3)c12 (stereo not shown) [4.106]	–	–	≤0.5	2 (≈ 4.6 µM)
CNc1cc(F)cc2c1[nH]c1nc(Oc3cnc(SC)nc3)nc(N3CC4CCC(N)C4C3)c12 (stereo not shown) [4.200]	–	–	≤0.5	≤0.5
CNc1cc(F)cc2c1[nH]c1nc(Oc3cnc(N)nc3)nc(N3CC4CC4(CN)C3)c12 (stereo not shown) [4.185]	≤ 0.5	8 (≈ 18.4 µM)	–	–
CNc1cc(F)cc2c1[nH]c1nc(Oc3cnc(C(C)(C)O)nc3)nc(N3CC4(CC[C@H]4N)C3)c12 [4.413]	≤ 0.5	≤ 0.5	–	–
CNc1cc(F)cc2c1[nH]c1nc(Oc3cnc(CCO)nc3)nc(N3CC4CC3C[C@@H]4N)c12 (stereo partly shown) [4.428]	–	–	≤0.5	2 (≈ 4.31 µM)
CCNC(=O)c1cncc(Oc2nc(NCC)c3c(n2)[nH]c2c(NC)cc(F)cc23)c1 [4.384]	–	–	1 (≈ 2.36 µM)	>16
CNc1cccc2c1[nH]c1nc(Oc3cncnc3)nc(N3C[C@@H]4CNC[C@H]4C3)c12 [3.61]	4 (≈ 9.94 µM)	16 (≈ 39.8 µM)	–	–
CNc1cc(F)cc2c1[nH]c1nc(Oc3ccc(CO)nc3)nc(N3CC4CC3C[C@@H]4N)c12 (stereo partly shown) [4.392]	16 (≈ 35.6 µM)	> 16	–	–
CNc1cc(F)cc2c1[nH]c1nc(Oc3cnc(C)nc3)nc(N3CC(NC(=O)CNC(=O)C(N)CO)C4(CC4)C3)c12 (stereo not shown) [4.127]	–	–	8 (≈ 13.8 µM)	>16
CNc1cc(F)cc2c1[nH]c1nc(Oc3cnc(C)nc3)nc(N3CC4CC(N)C4C3)c12 (stereo not shown) [4.111]	–	–	≤0.5	≤0.5
CNc1cc(F)cc2c1[nH]c1nc(Oc3cnc(C)nc3)nc(N3CC(N)CC3C)c12 (stereo not shown) [4.115]	–	–	1 (≈ 2.37 µM)	8 (≈ 18.9 µM)
CNc1ncc(Oc2nc(N3CC(N)C4(CC4)C3)c3c(n2)[nH]c2c(NC)cc(F)cc23)cn1 (stereo not shown) [4.216]	–	–	≤0.5	≤0.5
CNc1cccc2c1[nH]c1nc(Sc3cnc4cccnc4c3)nc(N3CCN(c4cnccn4)CC3)c12 [1.54]	≤ 0.5	> 64	–	–

SMILES	MIC (S. aureus ATCC 13709) [µg/mL]	MIC (E. coli ATCC 25922) [µg/mL]	MIC Sa (S. aureus ATCC 13709) [µg/mL]	MIC Ec (E. coli ATCC 25922) [µg/mL]
CNc1cc(F)cc2c1[nH]c1nc(Oc3cnc(CCO)nc3)nc(N3CC4CC3C[C@@H]4N)c12 (stereo partly shown) [4.414]	≤ 0.5	2 (≈ 4.31 µM)	–	–
CNc1cc(F)cc2c1[nH]c1nc(Oc3cnc(C4CC4)nc3)nc(N3CC4C(N)C4C3)c12 (stereo not shown) [4.241]	–	–	≤0.5	≤0.5
CNc1cc(F)cc2c1[nH]c1nc(Oc3cnc4cccnc4c3)nc(N3CC4(CC4N)C3)c12 (stereo not shown) [4.042]	–	–	≤0.5	≤0.5
CNc1cc(F)c(F)c2c1[nH]c1nc(Oc3cnc(C)nc3)nc(N3CC4(CC[C@H]4N)C3)c12 [5.01]	≤ 0.5	≤ 0.5	–	–
CNc1cc(F)cc2c1[nH]c1nc(Oc3cnc(C)nc3)nc(N3CC(N)C(C(F)(F)F)C3)c12 (stereo not shown) [4.436]	≤ 0.5	> 16	–	–
CCCc1ncc(Oc2nc(N3C[C@H](N)C4(CC4)C3)c3c(n2)[nH]c2c(NC)cc(F)cc23)cn1 [4.304]	≤ 0.5	≤ 0.5	–	–
CNc1cc(F)cc2c1[nH]c1nc(Oc3cnc(C)nc3)nc(N3CCC4CNC4C3)c12 (stereo not shown) [4.081]	–	–	≤0.5	1 (≈ 2.3 µM)
CNc1cc(F)cc2c1[nH]c1nc(Oc3cnc(N)nc3)nc(N3C[C@H]4CC3C[C@H]4N)c12 [4.191]	≤ 0.5	2 (≈ 4.59 µM)	–	–
CNc1cccc2c1[nH]c1nc(Oc3cncc(-c4nnn(C)n4)c3)nc(N3CC4C(N)C4C3)c12 (stereo not shown) [3.24]	2 (≈ 4.26 µM)	8 (≈ 17 µM)	–	–
CNc1ncc(Oc2nc(N3CCC(N)C3)c3c(n2)[nH]c2c(NC)cc(F)cc23)cn1 (stereo not shown) [4.219]	–	–	≤0.5	≤0.5
CNc1nccc2c1[nH]c1nc(Sc3cnc4nccnc4c3)nc(N3CC[C@@H](N)C3)c12 [7.01]	8 (≈ 18 µM)	> 64	–	–
CNc1cccc2c1[nH]c1nc(Oc3cncnc3)nc(N3CCC[C@@H](N)C3)c12 [3.16]	4 (≈ 10.2 µM)	4 (≈ 10.2 µM)	–	–
CNc1ccc(C)c2c1[nH]c1nc(Sc3cnc4ccc[n+]([O-])c4c3)nc(N3CC4C(N)C4C3)c12 (stereo not shown) [1.73]	≤ 0.5	8 (≈ 16.5 µM)	–	–
CNc1cc(F)cc2c1[nH]c1nc(Oc3cnc(C)nc3)nc(N3CC4NCCOC4C3)c12 (stereo not shown) [4.114]	–	–	≤0.5	2 (≈ 4.44 µM)
CNc1cc(F)cc2c1[nH]c1nc(Oc3cncc(F)c3)nc(N3CC4CC(N)C4C3)c12 (stereo not shown) [4.060]	–	–	≤0.5	≤0.5
CNc1cc(F)cc2c1[nH]c1nc(Oc3cnc(C)nc3)nc(N3CCCC4(CC4N)C3)c12 (stereo not shown) [4.101]	–	–	≤0.5	≤0.5
CCc1ncc(Oc2nc(N3C[C@H](N)C4(CC4)C3)c3c(n2)[nH]c2c(NC)cc(F)cc23)cn1 [4.259]	≤ 0.5	≤ 0.5	–	–
CNc1cc(F)cc2c1[nH]c1nc(Oc3cnc(C)nc3)nc(N3CCC(N)C(C)(C)C3)c12 (stereo not shown) [4.152]	≤ 0.5	1 (≈ 2.22 µM)	–	–
CNc1cc(F)cc2c1[nH]c1nc(Oc3cnc(SC)nc3)nc(N3C[C@H]4C[C@@H]3C[C@H]4N)c12 [4.204]	–	–	≤0.5	≤0.5
CNc1cc(F)cc2c1[nH]c1nc(Oc3cccnc3)nc(N3CC4CC(N)C4C3)c12 (stereo not shown) [4.348]	–	–	≤0.5	≤0.5
CNc1cccc2c1[nH]c1nc(Oc3cncnc3)nc(Oc3cncnc3)c12 [3.37]	2 (≈ 5.18 µM)	> 64	–	–

SMILES	MIC (S. aureus ATCC 13709) [µg/mL]	MIC (E. coli ATCC 25922) [µg/mL]	MIC Sa (S. aureus ATCC 13709) [µg/mL]	MIC Ec (E. coli ATCC 25922) [µg/mL]
CNc1cc(F)cc2c1[nH]c1nc(Sc3cnc4ccc[n+]([O-])c4c3)nc(N3CC(N)C4(CC4)C3)c12 (stereo not shown) [1.63]	≤ 0.5	≤ 0.5	–	–
CNc1cc(F)cc2c1[nH]c1nc(Oc3cncc(-c4nnnn4C)c3)nc(N3CC[C@@H](N)C3)c12 [4.169]	2 (≈ 4.21 µM)	8 (≈ 16.8 µM)	–	–
CNc1cc(F)cc2c1[nH]c1nc(Oc3cncc(Cl)c3)nc(N3CC(N)C4(CC4)C3)c12 (stereo not shown) [4.273]	–	–	≤0.5	2 (≈ 4.41 µM)
CNc1cc(F)cc2c1[nH]c1nc(Oc3cnc4c(c3)ncn4C)nc(N3CCC(N)C3)c12 (stereo not shown) [4.225]	–	–	≤0.5	2 (≈ 4.47 µM)
CNc1cc(F)cc2c1[nH]c1nc(Oc3cnc(NCC4CCCO4)nc3)nc(N3C[C@H](N)C4(CC4)C3)c12 (stereo partly shown) [4.406]	≤ 0.5	1 (≈ 1.92 µM)	–	–
CNc1cccc2c1[nH]c1nc(Sc3cnc4ccc[n+]([O-])c4c3)nc(N3CC(C4(N)CC4)C3)c12 [1.33]	≤ 0.5	4 (≈ 8.25 µM)	–	–
CNc1cc(F)cc2c1[nH]c1nc(Oc3cnc(C)nc3)nc(N3CC(NCCO)C4(CC4)C3)c12 (stereo not shown) [4.089]	–	–	≤0.5	≤0.5
CNc1cc(F)cc2c1[nH]c1nc(Oc3cnc(C(C)(C)C)nc3)nc(N3CC[C@@H](N)C3)c12 [4.319]	≤ 0.5	≤ 0.5	–	–
CNc1cc(F)cc2c1[nH]c1nc(Oc3ccc(C#N)nc3)nc(N3C[C@H](N)C4(CC4)C3)c12 [4.329]	–	–	≤0.5	≤0.5
CNc1cc(F)cc2c1[nH]c1nc(Oc3cnc(CC(=O)N4CCC(N)C4)nc3)nc(N3CC(N)C4(CC4)C3)c12 (stereo not shown) [4.372]	–	–	4 (≈ 7.32 µM)	16 (≈ 29.3 µM)
CNc1cc(F)cc2c1[nH]c1nc(Oc3cnc(N4CCOCC4)nc3)nc(N3CC(N)C4(CC4)C3)c12 (stereo not shown) [4.213]	–	–	≤0.5	1 (≈ 1.98 µM)
CNc1cc(F)cc2c1[nH]c1nc(Oc3cnc(CF)nc3)nc(N3C[C@H]4CC3C[C@H]4N)c12 [4.443]	≤ 0.5	≤ 0.5	–	–
CNc1cc(F)cc2c1[nH]c1nc(Oc3cnc(CN)nc3)nc(N3CC4CC3CC4N)c12 (stereo not shown) [4.393]	–	–	≤0.5	1 (≈ 2.22 µM)
CNc1cc(F)cc2c1[nH]c1nc(Oc3ccc(C#N)nc3)nc(N3CC4(CCC4N)C3)c12 (stereo not shown) [4.333]	–	–	≤0.5	≤0.5
CNc1cc(F)cc2c1[nH]c1nc(Oc3cnc(SC)nc3)nc(N3CC4C[C@@H](N)C4C3)c12 (stereo partly shown) [4.201]	≤ 0.5	≤ 0.5	–	–
CNc1cccc2c1[nH]c1nc(Oc3cnc4cccnc4c3)nc(N3CC(N)C4(CC4)C3)c12 (stereo not shown) [3.52]	≤ 0.5	≤ 0.5	–	–
CNc1cccc2c1[nH]c1nc(Sc3cnc4cccnc4c3)nc(N3CCN(C(=O)C4CCCO4)CC3)c12 (stereo not shown) [1.69]	≤ 0.5	8 (≈ 14.8 µM)	–	–
CNc1cc(F)cc2c1[nH]c1nc(Oc3cnc(Cl)nc3)nc(N3CC4C(N)CC4(C)C3)c12 (stereo not shown) [4.379]	–	–	≤0.5	≤0.5
CNc1cccc2c1[nH]c1nc(Oc3cncc(F)c3)nc(N3CC[C@@H](N)C3)c12 [3.6]	0.5 (≈ 1.27 µM)	1 (≈ 2.54 µM)	–	–
CNc1cc(F)cc2c1[nH]c1nc(Oc3cnc4c(ccn4C)c3)nc(N3CC4CC(N)C4C3)c12 (stereo not shown) [4.328]	≤ 0.5	1 (≈ 2.12 µM)	–	–

Source: patent US10858360B2, “Tricyclic gyrase inhibitors” (priority 2011, dated 2020)
